This is an account of results in patent US9796724B2, “Substituted pyrazolo[1,5-a]pyrimidine compounds as Trk kinase inhibitors” (Array BioPharma, Inc., priority 2009, dated 2017).

Molecules are shown by their SMILES. pIC50: −log10 of the molar value.

Assay [1] concerns the target TrkA (histidine-tagged recombinant human TrkA, cytoplasmic domain) (Homo sapiens (Human), UniProt P04629). In words: TrkA ELISA assay. The format is biochemical. The conditions noted are these: Table 1, 500 μM ATP, read-out: TrkA Enzyme IC50. The protocol: An enzyme-linked immunosorbant assay (ELISA) was used to assess TrkA kinase activity in the presence of inhibitors. Immulon 4HBX 384-well microtiter plates (Thermo part #8755) were coated with a 0.025 mg/mL solution of poly (Glu, Ala, Tyr; 6:3:1; Sigma P3899). […] The assay buffer consisted of 25 mM MOPS pH 7.5, 0.005% (v/v) Triton X-100 and 5 mM MgCl2. The reaction mixture was removed from the plate by washing with PBS containing 0.1% (v/v) Tween 20. The phosphorylated reaction product was detected using 0.2 μg/mL of a phosphotyrosine specific monoclonal antibody (clone PY20) conjugated to horseradish peroxidase in conjunction with the TMB Peroxidase Substrate System (KPL). After the addition of 1M phosphoric acid, the chromogenic substrate color intensity was quantitated via absorbance at 450 nm.
(ELISA stands for enzyme-linked immunosorbent assay.)

For assay [2], the target named is Human Jak2 kinase domain (Homo sapiens (Human), UniProt O60674). The assay can be described thus: Jak2 inhibition assay (Omnia kinase assay). The conditions noted are these: Table 1; >1000 nM when >50% inhibition not observed at 1000 nM; read-out: Jak2 Enzyme IC50. The format is biochemical. From the text:
The assays described in Examples C, D, E and F for the determination of JAK1, JAK2, JAK3 and Tyk2 kinase activity, respectively, utilized the Omnia® Kinase fluorescence peptide substrate-based technology (Invitrogen). The specific components of the assay mixture are described in Examples C, D and E. […] Two-μL aliquots of these were transferred to a fresh plate for a ten-fold intermediate dilution with assay buffer. […] Human Jak2 kinase domain comprising amino acids 808-1132 was purchased from Invitrogen Corporation, Carlsbad, Calif.

Usually pIC50 stands for the IC50 on a negative log10 scale, so that one unit is a factor of ten.

Human Jak2 kinase domain, sequence (O60674 808-1132): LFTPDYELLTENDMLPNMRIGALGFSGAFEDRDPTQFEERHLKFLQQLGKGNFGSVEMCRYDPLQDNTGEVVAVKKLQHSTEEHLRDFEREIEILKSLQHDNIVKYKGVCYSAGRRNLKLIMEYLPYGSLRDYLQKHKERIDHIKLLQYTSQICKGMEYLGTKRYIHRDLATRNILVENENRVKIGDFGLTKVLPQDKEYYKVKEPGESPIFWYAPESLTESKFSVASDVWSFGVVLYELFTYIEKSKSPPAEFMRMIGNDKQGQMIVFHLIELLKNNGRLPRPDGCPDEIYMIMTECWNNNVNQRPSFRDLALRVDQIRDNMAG
TrkA (histidine-tagged recombinant human TrkA, cytoplasmic domain), sequence (P04629 440-796): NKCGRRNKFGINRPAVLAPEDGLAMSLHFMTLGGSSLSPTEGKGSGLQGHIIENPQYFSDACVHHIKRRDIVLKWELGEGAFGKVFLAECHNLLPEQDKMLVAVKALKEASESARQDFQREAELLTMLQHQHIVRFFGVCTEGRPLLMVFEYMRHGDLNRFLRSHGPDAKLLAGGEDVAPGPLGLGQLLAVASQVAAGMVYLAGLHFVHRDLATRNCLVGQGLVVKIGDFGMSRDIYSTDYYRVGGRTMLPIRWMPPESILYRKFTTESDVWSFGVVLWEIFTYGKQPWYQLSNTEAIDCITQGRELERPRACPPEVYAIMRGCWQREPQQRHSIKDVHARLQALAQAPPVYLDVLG

In the case of `C[C@H](O)[C@@H](CO)NC(=O)c1cnn2ccc(N3CCC[C@@H]3c3cc(F)ccc3F)nc12` [Example 176, 5-((R)-2-(2,5-difluorophenyl)pyrrolidin-1-yl)-N-((2R,3S)-1,3-dihydroxybutan-2-yl)pyrazolo[1,5-a]pyrimidine-3-carboxamide], the pIC50 in assay [1] is 7.57; in assay [2], under 6.00.
The corresponding values for `C[C@@H](O)[C@H](CO)NC(=O)c1cnn2ccc(N3CCC[C@@H]3c3cc(F)ccc3F)nc12` [Example 174, 5-((R)-2-(2,5-difluorophenyl)pyrrolidin-1-yl)-N-((2S,3R)-1,3-dihydroxybutan-2-yl)pyrazolo[1,5-a]pyrimidine-3-carboxamide] are 7.79 and under 6.00.
As to `O=C(NCCN1CCC(O)CC1)c1cnn2ccc(N3CCC[C@@H]3c3cc(F)ccc3F)nc12` [Example 170, 5-((R)-2-(2,5-difluorophenyl)pyrrolidin-1-yl)-N-(2-(4-hydroxypiperidin-1-yl)ethyl)pyrazolo[1,5-a]pyrimidine-3-carboxamide], the pIC50 in assay [1] is 7.94.
As to `C[C@H](O)[C@H](CO)NC(=O)c1cnn2ccc(N3CCC[C@@H]3c3cc(F)ccc3F)nc12` [Example 175, 5-((R)-2-(2,5-difluorophenyl)pyrrolidin-1-yl)-N-((2S,3S)-1,3-dihydroxybutan-2-yl)pyrazolo[1,5-a]pyrimidine-3-carboxamide], the pIC50 was 7.91 in assay [1] and under 6.00 in assay [2].
